Results reported in patent US5070210A, “Novel ketenimines as intermediates for insecticides” (ICI Americas Inc., priority 1990, dated 1991).

Key:
Format in all cases: in vivo
[1] = tested on: Housefly [Musca domestica]; test: Housefly insecticidal test; conditions: μg per 25 female flies; mortality after 48 hours
Method in brief: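 Residual contact test: acetone dilution, 0.01% peanut oil spreader, solvent evaporated; 25 ♀ flies (1-2 d old) per cage; sugar-water plug; 48 h mortality read. LC50 in μg/25 female flies, from dose-mortality curves; top dose 100 μg/25 flies.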

[2] = tested on: Tobacco Budworm [Heliothis virescens (Fabricius)] larvae; test: Tobacco budworm contact test; conditions: second-instar larvae, percent in solution, 5 days
Method in brief: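 Cotton cotyledons dipped 2–3 s in compound in 50-50 acetone-water, dried, then infested with 5 second-instar larvae and held 5 days at high humidity. Mortality scored; LC50 from dosage-mortality curves, expressed as percent compound in solution, concentrations from 0.1% downward.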

[3] = tested on: Tobacco Budworm [Heliothis virescens (Fabricius)] eggs; test: Tobacco budworm egg test; conditions: 2-day old eggs, percent in solution
Method in brief: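 2-day eggs on paper towel, acetone dip, 0.1% and below; petri dish with larval diet, 78° F. Mortality read after control hatch and larval feeding. LC50 = % compound in solution, from dose-mortality curve.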

[4] = tested on: Beet Armyworm (Spodoptera exigua); test: Beet armyworm insecticidal test; conditions: second-instar larvae, percent in solution; five days
Method: The compounds in Tables 1 and 2 above were tested for insecticidal activity using the following testing procedures. LC50 values, based on the results of these tests and calculated according to dosage-mortality curves, are expressed in Table 3.
Beet Armyworm (Spodoptera exigua):
Test compounds were diluted in a 50-50 acetone-water solution. Young leaves of sugar beets (Beta vulgaris) were immersed in the test solutions for 2-3 seconds and placed on a wire screen to dry. The dried leaves were placed in petri dishes containing a moistened filter paper and infested with five second-instar beet armyworm larvae. The dishes were placed in a high humidity chamber. Mortality of the larvae was recorded five days later. Test concentrations ranged from 0.1% downward. The LC-50 values are expressed below in Table 3 under the heading "BAW" in terms of percent of the test compound in solution.

[5] = tested on: Cabbage Looper [Trichoplusia ni (Hubner)]; test: Cabbage looper insecticidal test; conditions: second-instar larvae, percent in solution; 3-5 days
Method in brief: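 LC50 values, given as percent test compound in solution, were calculated from dosage-mortality curves. Squash cotyledons were immersed 2-3 s in acetone-water (50-50) dilutions starting at 0.1%, dried on a screen, then infested with five second-instar larvae. Mortality was read 3-5 days on.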

[6] = tested on: Aster Leafhopper [Macrosteles fascifrens (Stal)]; test: Aster leafhopper insecticidal test; conditions: adults/nymphs, percent in solution; 48 hours
Method in brief: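 Three ~10 cm oat seedlings per cup were dipped 2-3 seconds in 50-50 acetone-water compound solutions, dried, and caged with ten adult/nymph leafhoppers. Mortality was counted after 48 hours at concentrations from 0.05% downward. LC50, as percent compound in solution, came from dosage-mortality curves.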

[7] = tested on: Maize weevil [Sitophilus Zeamais (Motschulsky)]; test: Maize weevil insecticidal test; conditions: adult weevils, percent in solution; 48 hours
Method in brief: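 LC50, in percent of compound in solution, was derived from dosage-mortality curves after 48 h at about 25 °C. Ten adult weevils per container fed on four corn seeds briefly immersed in acetone:water (50:50) solutions of up to 0.01% and dried.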

Structure (SMILES) | LC50, HF [1] | LC50, TBW, C (TBW-C) [2] | LC50, TBW, E (TBW-E) [3] | LC50, BAW [4] | LC50, CL [5] | LC50, LH [6] | LC50, MW [7]
Clc1cccc(N=C(OCc2cccc(Oc3ccccc3)c2)C(Cl)Cl)c1 [Compound 1] | 4.8 µg | 0.06% | 0.05% | 0.009% | 0.005% | > 0.05% | > 0.01%
CC(C)C(=Nc1ccc(Cl)cc1)OCc1cccc(Oc2ccccc2)c1 [Compound 2] | 4.5 µg | 0.0009% | 0.04% | 0.01% | 0.006% | 0.0003% | 
CC(Cl)(Cl)C(=Nc1ccc(Cl)cc1)OCc1cccc(Oc2ccccc2)c1 [Compound 3] | 50 µg | 0.009% | > 0.1% | 0.015% | 0.012% | > 0.05% | > 0.01%
Clc1ccc(N=C(OCc2cccc(Oc3ccccc3)c2)C(Cl)Cl)c(Cl)c1 [Compound 4] | 100 µg | 0.05% | > 0.1% | 0.04% | 0.007% | > 0.05% | 
CC(C)C(=Nc1ccc(Cl)c(Cl)c1)OCc1cccc(Oc2ccccc2)c1 [Compound 9] | 14 µg | 0.0008% | 0.02% | 0.0005% | 0.001% | 0.0003% | > 0.01%
Clc1ccccc1N=C(OCc1cccc(Oc2ccccc2)c1)C(Cl)Cl [Compound 34] | > 100 µg | 0.01% | > 0.1% | 0.015% | 0.015% |  | 
Fc1ccc(N=C(OCc2cccc(Oc3ccccc3)c2)C2CC2)cc1 [Compound 45] | 30 µg | 0.01% | 0.08% | 0.1% | 0.03% | > 0.05% | 
CC(C)C(=Nc1cccc(F)c1)OCc1cccc(Oc2ccccc2)c1 [Compound 47] | 10 µg | 0.002% | 0.06% | 0.002% | 0.002% | 0.0003% | 
CC(C)C(=Nc1ccc(F)cc1F)OCc1cccc(Oc2ccccc2)c1 [Compound 52] | 8 µg | 0.004% | > 0.05% | 0.01% | 0.0025% | 0.001% | 
CC(C)C(=Nc1ccc(F)cc1)OCc1ccc(F)c(Oc2ccccc2)c1 [Compound 53] | 2 µg | 0.0025% | 0.02% | 0.003% | 0.0005% |  | 
CC(C)C(=Nc1ccc(F)c(F)c1)OCc1cccc(Oc2ccccc2)c1 [Compound 54] | 3.5 µg | 0.001% | 0.017% | 0.004% | 0.0003% | 0.00015% | 
FC(F)(F)c1ccc(N=C(OCc2cccc(Oc3ccccc3)c2)C2CC2)c(Cl)c1 [Compound 65] | > 100 µg | 0.1% | > 0.1% | > 0.1% | < 0.01% | > 0.05% | 
CC(C)C(=Nc1ccc(Cl)c(C(F)(F)F)c1)OCc1cccc(Oc2ccccc2)c1 [Compound 71] | 50 µg | 0.0008% | 0.065% | 0.0004% | 0.0006% | 0.002% | 
CC(C)C(=Nc1cccc(C(F)(F)F)c1)OCc1ccc(F)c(Oc2ccccc2)c1 [Compound 80] | 4.5 µg | 0.00075% | 0.005% | 0.0018% | 0.0003% | 0.0001% | 
Cc1c(Cl)cccc1N=C(OCc1cccc(Oc2ccccc2)c1)C(Cl)Cl [Compound 97] | 10 µg | 0.004% | 0.04% | 0.01% | 0.002% |  | 
Cc1ccc(N=C(OCc2cccc(Oc3ccccc3)c2)C(Cl)Cl)cc1 [Compound 139] | 4.2 µg | 0.005% | 0.05% | 0.007% | 0.015% |  | 
O=[N+]([O-])c1ccc(N=C(OCc2cccc(Oc3ccccc3)c2)C(Cl)Cl)cc1 [Compound 173] | 18 µg | > 0.1% | > 0.1% | > 0.1% | 0.02% |  | 
CC(C)C(=Nc1ccc(Br)c(F)c1)OCc1ccc(F)c(Oc2ccc(F)cc2)c1 [Compound 282] | 16 µg | 0.0007% | 0.02% | 0.0025% | 0.00007% |  | 0.008%
CC(C)C(=Nc1ccc2c(c1)OC(C)(C)O2)OCc1ccc(F)c(Oc2ccc(F)cc2)c1 [Compound 283] | 23 µg | 0.0009% | 0.016% | 0.0013% | 0.00009% |  | > 0.01%
CC(C)C(=Nc1ccc2c(c1)OC(F)(F)O2)OCc1ccc(F)c(Oc2ccc(F)cc2)c1 [Compound 284] | 39 µg | 0.0002% |  | 0.0025% | 0.00005% | 0.0003% | 0.0075%
CC(C)C(=Nc1ccc(F)c(I)c1)OCc1ccc(F)c(Oc2ccc(Cl)cc2)c1 [Compound 326] | 25 µg | 0.0005% | 0.03% | 0.004% | 0.00015% |  | 
CC(C)C(=Nc1ccc(F)c(Cl)c1F)OCc1cccc(Oc2ccccc2)c1 [Compound 332] | 7 µg | 0.00075% | 0.015% | 0.0012% | 0.00045% |  | 
CC(C)C(=Nc1ccc(Br)cc1)OCc1ccc(F)c(Oc2ccc(F)cc2)c1 [Compound 333] | 15 µg | 0.00075% | 0.025% | > 0.1% | 0.00024% |  | > 0.01%
CC(C)C(=Nc1ccc(I)cc1)OCc1ccc(F)c(Oc2ccc(F)cc2)c1 [Compound 335] | 34 µg | 0.00025% | 0.05% | > 0.1% | 0.00027% |  | > 0.01%
CC(C)C(=Nc1ccc(F)c(Cl)c1)OCc1cc(Oc2ccc(F)cc2)c(F)cc1F [Compound 343] | 40 µg | 0.00025% | > 0.1% | > 0.1% | 0.00027% |  | > 0.01%
CC(C)C(=Nc1ccc2c(c1)OC(F)(F)O2)OCc1cccc(Oc2ccc(Cl)cc2)c1 [Compound 450] | 72 µg | 0.0001% | 0.015% | 0.005% | 0.00016% |  | 0.01%
CC(C)C(=Nc1ccc(F)c(Cl)c1)OCc1cccc(Oc2ccc(Cl)cc2)n1 [Compound 463] | 8 µg |  | 0.0075% | 0.0024% | 0.00009% | 0.0003% | 0.01%
CC(C)C(=Nc1ccc(F)c(Cl)c1F)OCc1cccc(Oc2ccc(Cl)cc2)n1 [Compound 500] | 16 µg | 0.00075% | 0.02% | 0.002% | 0.00009% |  | 
